The values that follow come from patent US6312704A, “Orally administrable composition capable of providing enhanced bioavailability when ingested” (Gattefosse, S.A., priority 1993, dated 2001).

The format of series [1] is physicochemical. The note with it: gastric medium pH 1.2. From the text:
The proportions by weight of the different constituents of this mixture are: […]

The nature of series [2]: in vitro rate of dissolution of hydrocortisone in a gastric medium (pH 1.2). The format is physicochemical. From the text:
In this example, the rates of dissolution of hydrocortisone in a gastric medium (at pH 1.2) are compared.
The same lipophilic phase and the same SA/CoSA mixture are used as in Example 8, but in the following proportions: […]

Series [3] can be described thus: in vitro dissolution of indomethacin in a gastric medium at pH 1.2. It counts as physicochemical. The conditions noted are these: gastric medium pH 1.2. The method, then: In all the examples, the complement by weight to […] of the composition is, in actual fact, represented by an anti-inflammatory active principle, namely indomethacin in Examples 1 to 8, and 12, hydrocortisone in Example 9 and diclofenac sodium in Example 10. In examples 1-12, the hydrophilic phase is represented by water which is known to be a simulation of the digestive milieu for in vitro tests.
By way of comparison, when the pure active agent (indomethacin) is tested, at best only 5% of this active agent is dissolved in one hour; and still by way of comparison, with hard gelatin capsules of this active principle which are currently on the market, only 4.7% of active agent dissolved is obtained at the end of one hour.
In this example, the rates of dissolution in vitro in a gastric medium (at pH =1.2), in which indomethacin alone has a rate of dissolution of less than 5% in the same medium, are compared.
(§1) The proportions by weight of the different constituents of this mixture are:
In this example, the same components are used as in the preceding example, with different proportions, namely: […]

The nature of series [4]: in vivo test on rats, plasma concentrations after oral administration of indomethacin. The conditions noted are these: powder made into a suspension immediately before use. The method, then:
In vivo tests were conducted on rats with indomethacin as active agent.
as §1
An oral administration of indomethacin is first carried out according to the above composition.
A second series of tests consists in administering indomethacin orally in the form of powder made into a suspension immediately before use.

SMILES strings stand for the structures.

As to `O=C(O)Cc1ccccc1Nc1c(Cl)cccc1Cl` [diclofenac sodium], in series [1] (30 min), the “rate of dissolution in 30 min” value turned out to be 1%. Besides, in series [1] (powder form), the “solubility in gastric medium (in words)” value is reported as “almost insoluble”.
Take `C[C@]12CCC(=O)C=C1CC[C@@H]1[C@@H]2[C@@H](O)C[C@@]2(C)[C@H]1CC[C@]2(O)C(=O)CO` [hydrocortisone]: the “rate of dissolution in 45 minutes” value in series [2] came to 10%.
`COc1ccc2c(c1)c(CC(=O)O)c(C)n2C(=O)c1ccc(Cl)cc1` [indomethacin]: the “percentage of the active agent dissolved at the end of one hour” value in series [3] (one hour) is listed as at most 5%. Moreover, in series [3] (indomethacin alone, time not stated), the rate of dissolution entry is on record as “less than 5%”. Also, the kinetics obtained result in series [4] is “irregular and vary from one animal to another”. In series [4] (rat, in vivo, one hour), this compound showed a concentration at 1 h of 1000 to 5000 ng/mL. In series [4] (rat, in vivo, two hours), this compound yielded a concentration at 2 h of 1000 to 4000 ng/mL.
